Experimental data published in patent publication US4490370A, “Naphthylglycyl cephalosporin derivatives” (priority 1983, dated 1984).
Like-named read-outs stand apart in the source and are kept apart here.

Assays:
[1] = tested on: Staph. epi; assay: Agar dilution MIC, Staph. epi; assay type: cell-based; settings: read-out: MIC
Text: (§1) The following Tables present typical minimum inhibitory concentrations (MIC's) in μg/ml for the compounds when evaluated against the indicated microorganisms.

[2] = tested on: β-lactamase (organism 1313G); assay: Stability to β-lactamases, 1313G; assay type: biochemical; settings: lower numbers mean greater stability
[3] = tested on: β-lactamase (organism PS185); assay: Stability to β-lactamases, PS185; assay type: biochemical; settings: lower numbers mean greater stability
[4] = Oral absorption and blood levels in rodents; assay type: in vivo
[5] = tested on: Staph. aureus; assay: Agar dilution MIC, Staph. aureus; assay type: cell-based; settings: Staphylococcus aureus, read-out: MIC
Text: as §1

[6] = tested on: β-lactamase (TEM); assay: Stability to β-lactamases, TEM; assay type: biochemical; settings: lower numbers mean greater stability
[7] = tested on: H. influ.; assay: Agar dilution MIC, H. influenza; assay type: cell-based; settings: Table III, strain 102; read-out: MIC
Text: as §1

[8] = tested on: Strep. PN; assay: Agar dilution MIC, Strep. PN; assay type: cell-based; settings: Table I, strain PARK; read-out: MIC
Text: as §1

[9] = tested on: β-lactamase (organism 265A); assay: Stability to β-lactamases, 265A; assay type: biochemical; settings: lower numbers mean greater stability
[10] = Plasma concentration after intravenous dose in rats; assay type: in vivo; settings: rat, intravenous 20 mg/kg
Description: For example, when 7-(2-naphthylglycylamido)-3-methyl-3-cephem-4-carboxylic acid was administered to rats at an intravenous dose of 20 mg/kg, the plasma concentration after one hour was 18.6 μg/ml; after four hours, 14.1 μg/ml; and after twenty-four hours, the plasm level was still measured as 1.96 μg/ml.

[11] = tested on: Peptococcus Asaccharolyticus; assay: Susceptibility of anaerobic cocci, agar-dilution, 24 hour MIC; assay type: cell-based; settings: Peptoniphilus asaccharolyticus, isolate 1344
Text: (§2) A typical and preferred compound provided by this invention is 7-(2-naphthylglycylamido)-3-methyl-3-cephem-4-carboxylic acid, the compound of Example 3. The antibacterial activity of this compound and several others of the invention has been determined in standard in vitro agar dilution assays against a variety of gram positive microorganisms. The following Tables present typical minimum inhibitory concentrations (MIC's) in μg/ml for the compounds when evaluated against the indicated microorganisms. MIC's for several known compounds are also presented for comparison.
(§3) Susceptibility of Anaerobic Cocci
(§4) Isolates by the Agar-Dilution
(§5) Method-24 hour MIC's (μg/ml)

[12] = tested on: P. magnus; assay: as above; assay type: cell-based; settings: Finegoldia magna
Text: as §2, §3, §4, §5

[13] = tested on: Peptococcus Constellatus; assay: as above; assay type: cell-based; settings: Streptococcus constellatus, isolate 1468
Text: as §2, §3, §4, §5

[14] = tested on: Peptostreptococcus anaerobius; assay: as above; assay type: cell-based
Text: as §2, §3, §4, §5

[15] = tested on: Peptostreptococcus intermedius; assay: as above; assay type: cell-based
Text: as §2, §3, §4, §5

[16] = tested on: P. prevoti; assay: as above; assay type: cell-based; settings: isolate 1293
Text: as §2, §3, §4, §5

[17] = tested on: Propionibacterum acnes; assay: Susceptibility of anaerobes, agar-dilution, 24 hour MIC; assay type: cell-based
Text: as §2, §3, §4, §5

[18] = tested on: B. Fragilis; assay: Expanded spectrum MIC, B. Fragilis; assay type: cell-based; settings: Bacteroides fragilis, Table III, read-out: MIC
Text: as §2

[19] = tested on: Strep. A; assay: Agar dilution MIC, Strep. A; assay type: cell-based; settings: Table I, strain C203; read-out: MIC
Text: as §2

[20] = tested on: β-lactamase (organism 1082E); assay: Stability to β-lactamases, 1082E; assay type: biochemical; settings: lower numbers mean greater stability
[21] = tested on: Klebsiella; assay: Agar dilution MIC, Klebsiella; assay type: cell-based; settings: Klebsiella; Table I, strain X26; read-out: MIC
Text: as §2

[22] = tested on: Bacteroides fragilis; assay: Susceptibility of anaerobes, agar-dilution, 24 hour MIC; assay type: cell-based

CC1=C(C(=O)O)N2C(=O)C(NC(=O)[C@H](N)c3ccc4ccccc4c3)C2SC1 (stereo partly drawn) [Example 3, D-7-(2-naphthylglycylamido)-3-methyl-3-cephem-4-carboxylic acid tetrahydrate]
MIC ([1]; Table I, strain 222): 0.5 µg/mL
MIC ([1]; Table I, strain EPI1): 1 µg/mL
MIC ([1]; Table II expanded spectrum, strain EPI1): 8 µg/mL
MIC ([1]; Table II, strain 219): 0.5 µg/mL
MIC ([1]; Table II, strain 269): 2 µg/mL
MIC ([1]; Table II, strain 270): 4 µg/mL
MIC ([1]; Table II, strain 285): 2 µg/mL
MIC ([1]; Table II, strain 286): 1 µg/mL
Stability to β-lactamases [2]: 256
Stability to β-lactamases [3]: 25
blood levels compared with cefaclor and cephalexin [4]: higher and longer blood levels than cefaclor and cephalexin
oral absorption ([4]; oral): efficiently orally absorbed
MIC ([5]; Table I, strain V41): 8 µg/mL
MIC ([5]; Table I, strain X1.1): 0.5 µg/mL
MIC ([5]; Table I, strain X400): 64 µg/mL
MIC ([5]; Table II, strain S224): 0.5 µg/mL
MIC ([5]; Table II, strain S225): 0.5 µg/mL
MIC ([5]; Table II, strain S226): 1 µg/mL
MIC ([5]; Table II, strain S227): 1 µg/mL
MIC ([5]; Table II, strain S228): 0.5 µg/mL
MIC ([5]; Table II, strain S229): 1 µg/mL
MIC ([5]; Table II, strain S230): 0.5 µg/mL
MIC ([5]; Table II, strain S231): 0.5 µg/mL
MIC ([5]; Table II, strain S234): 1 µg/mL
MIC ([5]; Table II, strain S237): 1 µg/mL
MIC ([5]; Table II, strain S238): 1 µg/mL
MIC ([5]; Table II, strain S239): 1 µg/mL
MIC ([5]; Table III expanded spectrum, strain 8725): 0.25 µg/mL
MIC ([5]; Table III, strain 8438): 0.25 µg/mL
MIC ([5]; Table III, strain 8787): 0.25 µg/mL
MIC ([5]; Table III, strain 9050): 0.5 µg/mL
MIC ([5]; Table III, strain 9136): 0.25 µg/mL
MIC ([5]; Table III, strain 9290): 1 µg/mL
MIC ([5]; Table III, strain 9767): 1 µg/mL
Stability to β-lactamases [6]: 3
MIC [7]: 32 µg/mL
MIC [8]: 0.5 µg/mL
Stability to β-lactamases [9]: 50
concentration at 1 h ([10]; 1 hour, read-out: plasma concentration after one hour): 18600 ng/mL
concentration at 4 h ([10]; 4 hours, read-out: plasma concentration after four hours): 14100 ng/mL
concentration at 24 h ([10]; 24 hours, read-out: plasma level after twenty-four hours): 1960 ng/mL
MIC [11]: ≤ 0.125 µg/mL
MIC ([12]; isolate 1401): 0.25 µg/mL
MIC ([12]; isolate 1477): 0.5 µg/mL
MIC [13]: 0.25 µg/mL
MIC ([14]; isolate 8): ≤ 0.125 µg/mL
MIC ([14]; isolate 52): 0.25 µg/mL
MIC ([14]; isolate 1477): ≤ 0.125 µg/mL
MIC ([15]; isolate 1264): 1 µg/mL
MIC ([15]; isolate 1524): 1 µg/mL
MIC ([15]; isolate 1624): 1 µg/mL
MIC [16]: 0.5 µg/mL
MIC ([17]; isolate 44): 4 µg/mL
MIC ([17]; isolate 79): 8 µg/mL
MIC ([17]; isolate 101): 8 µg/mL
MIC ([17]; isolate 104): 8 µg/mL
MIC ([17]; isolate 105): 4 µg/mL
MIC ([17]; isolate 5191): 0.25 µg/mL
MIC ([17]; isolate 5227): 0.25 µg/mL
MIC ([17]; isolate 5228): 8 µg/mL
MIC ([17]; isolate 5229): 8 µg/mL
MIC ([17]; isolate 5246): 8 µg/mL
MIC ([18]; strain 180-821): 2 µg/mL
MIC ([18]; strain 10668): 32 µg/mL
MIC ([18]; strain 10683): 32 µg/mL
MIC ([18]; strain 10695): 4 µg/mL
MIC ([18]; strain 10750): 16 µg/mL
MIC ([18]; strain 10774): 16 µg/mL
MIC ([18]; strain 10817): 2 µg/mL
MIC ([18]; strain 10837): 16 µg/mL
MIC ([18]; strain 107266): 16 µg/mL
MIC ([18]; strain 107268): 8 µg/mL
MIC [19]: 0.5 µg/mL
Stability to β-lactamases [20]: 26
MIC [21]: 2 µg/mL
MIC ([22]; isolate 200): 32 µg/mL
MIC ([22]; isolate 206): 16 µg/mL
MIC ([22]; isolate 3625): 16 µg/mL
MIC ([22]; isolate 7371A): 16 µg/mL
MIC ([22]; isolate 19671): > 64 µg/mL
MIC ([22]; isolate 19681): 16 µg/mL
